Results from patent publication US8395037B2, “Pharmaceutical compositions for treating/preventing motor organ diseases” (Mitsubishi Corporation, priority 2005, dated 2013).

Columns and labels:
[1] = Lubricating effect: pendulum-type dynamic friction coefficient measurement; format: physicochemical; conditions: for Dynamic friction coefficient: room temperature, mean of three
Method: Lubricating effect of fullerene was examined using three different solutions. 20 ml each of the solutions of (A) osteoarthritis patient-derived synovial fluid, (B) 50% polyethylene glycol solution, and (C) joint function-improving agent (hyaluronic acid formulation) were prepared, and dispensed into two tubes at 10 ml each. One 10 ml solution was mixed with fullerene (C60) to adjust the final concentration to 1.0 μM. The other 10 ml solution was used as a control solution. The dynamic friction coefficients of the respective solutions at room temperature were measured three times by a pendulum-type dynamic friction coefficient measuring apparatus (Japan Lubricating Oil Society), and the mean values were calculated. The dynamic friction coefficients were compared between the fullerene solutions and the control solutions.

proteoglycan = assay: Proteoglycan concentration in synovial fluid of osteoarthritis model knee joints (ELISA); format: in vivo, rabbit; conditions: sequential measurement
Method: (§1) Sequential biochemical examinations of blood and synovial fluid were also performed (pre-administration and fourth- and eighth-week post-administration of water-solubilized fullerene). The observed biochemical examination items were (A) hepatic function (GOT and GPT), renal function (urea nitrogen and creatinine), and electrolytes (Na, K, and Cl), (B) extracellular matrix-degrading enzyme production ability (MMP-1, 3, and 13), and (C) cartilage matrix-synthesizing ability (proteoglycan). The items of (A) were measured by commercially available testing equipments and items of (B) and (C) were measured by ELISA method.

[2] = tested on: osteoarthritis model animals (rabbits); assay: Osteoarthritis rabbit model, intraarticular water-solubilized fullerene 0.1 to 40.0 μM, safranin O cartilage degeneration; format: in vivo; conditions: for Efficacy on cartilage degeneration (rabbits responding): eight-week administration
Method: Various concentrations (0.1, 1.0, 10.0, or 40.0 μM) of water-solubilized fullerene (cyclodextrin clathrate C60) was injected into the right knee joints of osteoarthritis model animals (rabbits), and solvent alone was injected into the left knee joints as controls intraarticularly once a week. On the fourth or eighth week after the start of administration, the knees were dissected and stained with safranin O, to compare the degree of cartilage degeneration of medial and lateral tibia.
As described above, the therapeutic effect of the four-week or eight-week repetitive administration with water-solubilized fullerene was confirmed. Therefore, the therapeutic effect of a single administration of water-solubilized fullerene was also examined. Immediately after the preparation of an osteoarthritis rabbit model, a single dose of water-solubilized fullerene was administered. On the eighth week, articular cartilage tissue samples were prepared, and the therapeutic effect was examined.

MMP-3 = MMP-3 concentration in synovial fluid of osteoarthritis model knee joints (ELISA); format: in vivo, rabbit; conditions: various concentrations, sequential measurement, versus control knees
Method: as §1

[3] = tested on: osteoarthritis model (rabbit); assay: Comparative test of water-solubilized fullerene and hyaluronic acid formulation in osteoarthritis model; format: in vivo; conditions: 1.0 μM, 2.0 ml/rabbit, eighth week; compared with hyaluronic acid formulation
Method: The medicinal effect of water-solubilized fullerene (cyclodextrin clathrate C60) was examined comparatively with a known articular function-improving agent (the hyaluronic acid formulation Suvenyl (registered trademark)). Specifically, the effects at the eighth week after the start of treatment on rabbits in the following five groups (A) to (E) were examined. Each group consisted of four rabbits and the administration dosage was 2.0 ml/rabbit in all groups.
Test groups: (A) Sham-operation, group administered with Suvenyl; (B) Sham-operation, group administered with 50% polyethylene glycol; (C) Osteoarthritis model, group administered with 1.0 μM water-solubilized fullerene; (D) Osteoarthritis model, group administered with 50% Suvenyl; (E) Osteoarthritis model, group administered with 1.0 μM water-solubilized fullerene and Suvenyl.

[4] = General condition, organ histology and blood biochemical examination during eight-week administration; format: in vivo, rabbit
Method: In particular, in the eight-week administration, the inhibitory effect of water-solubilized fullerene on cartilage degeneration was more remarkable in the 1.0 μM and 10.0 μM administered groups rather than the 0.1 μM administered group. […] During the eight-week test period, decrease in body weight, insufficient feeding, hematuria, or abnormal hair coat was not observed in the experimental animals.
as §1

[5] = 1 μM in 50% polyethylene glycol
[6] = 1 μM in hyaluronic acid formulation
[7] = 1 μM in osteoarthritis patient-derived synovial fluid

Row | Molecule | Friction coefficient decreasing rate to control solution [1, 5] [%] | Dynamic friction coefficient [1, 5] | Friction coefficient decreasing rate to control solution [1, 6] [%] | Dynamic friction coefficient [1, 6] | Friction coefficient decreasing rate to control solution [1, 7] [%] | Dynamic friction coefficient [1, 7] | Proteoglycan concentration in synovial fluid (proteoglycan) | Cartilage degeneration inhibitory effect across doses ([2]; 0.1 μM to 40 μM, four-week administration) | Efficacy on cartilage degeneration (rabbits responding) ([2]; 0.1 μM) | Efficacy on cartilage degeneration (rabbits responding) ([2]; 1.0 μM) | Efficacy on cartilage degeneration (rabbits responding) ([2]; 10.0 μM) | Efficacy on cartilage degeneration (rabbits responding) ([2]; 40.0 μM) | Inhibitory effect on articular cartilage degeneration ([2]; 0.1, 1.0, 10.0 or 40.0 μM intraarticular once a week, four-week and eight-week administration) | Inhibitory effect on cartilage degeneration after single administration ([2]; single dose immediately after model preparation, eighth week, versus control knees) | MMP-3 concentration in synovial fluid (MMP-3) | Inhibitory effect on the production of cartilage matrix-degrading enzymes (MMPs) [3] | Producing/maintaining effect of proteoglycan [3] | Decrease in body weight, insufficient feeding, hematuria, abnormal hair coat ([4]; eight-week test period) | Optical microscopic observation of organs other than the joints (brain, lung, liver, kidney, adrenal, testis) ([4]; eight-week test period) | Hepatic function, renal function, electrolyte balance ([4]; pre-administration, fourth and eighth week post-administration)
1 | c12c3c4c5c1c1c6c7c2c2c8c3c3c9c4c4c%10c5c5c1c1c6c6c%11c7c2c2c7c8c3c3c8c9c4c4c9c%10c5c5c1c1c6c6c%11c2c2c7c3c3c8c4c4c9c5c1c1c6c2c3c41 [C60, fullerene (C60)] | 25 | 0.104 | 42 | 0.116 | 37 | 0.111 | – | – | – | – | – | – | – | – | – | – | – | – | – | –
2 | cyclodextrin clathrate C60 [water-solubilized fullerene] | – | – | – | – | – | – | not clear | almost equivalent | a mild efficacy in all four rabbits | a moderate efficacy in two rabbits and a remarkable efficacy in one rabbit out of a total of four | a remarkable efficacy in three rabbits out of a total of four | a mild efficacy in one rabbit and moderate efficacy in another rabbit out of a total of three | confirmed at the respective concentrations | no clear inhibitory effect on cartilage degeneration was observed | not clear | more remarkable effects than the hyaluronic acid formulation | more remarkable effects than the hyaluronic acid formulation | not observed | no findings showing degeneration in the respective tissues | not significantly changed
